Experimental findings from US20250270201A1, “SUBSTITUTED PYRIMIDINYL HYDRAZIDE COMPOUND AND PREPARATION METHOD AND USE THEREOF” (ARIGENX THERAPEUTICS CO., LTD., priority 2022, published 2025) are described below.

This assay addresses T1, AHR (Homo sapiens, UniProt P35869).
T1 construct: A human liver cancer cell line HepG2 endogenously expressing an AHR protein; host or cells: HepG2 stably transfected with a CYP1A1-promoter firefly luciferase reporter
T1 sequence (P35869 11-848): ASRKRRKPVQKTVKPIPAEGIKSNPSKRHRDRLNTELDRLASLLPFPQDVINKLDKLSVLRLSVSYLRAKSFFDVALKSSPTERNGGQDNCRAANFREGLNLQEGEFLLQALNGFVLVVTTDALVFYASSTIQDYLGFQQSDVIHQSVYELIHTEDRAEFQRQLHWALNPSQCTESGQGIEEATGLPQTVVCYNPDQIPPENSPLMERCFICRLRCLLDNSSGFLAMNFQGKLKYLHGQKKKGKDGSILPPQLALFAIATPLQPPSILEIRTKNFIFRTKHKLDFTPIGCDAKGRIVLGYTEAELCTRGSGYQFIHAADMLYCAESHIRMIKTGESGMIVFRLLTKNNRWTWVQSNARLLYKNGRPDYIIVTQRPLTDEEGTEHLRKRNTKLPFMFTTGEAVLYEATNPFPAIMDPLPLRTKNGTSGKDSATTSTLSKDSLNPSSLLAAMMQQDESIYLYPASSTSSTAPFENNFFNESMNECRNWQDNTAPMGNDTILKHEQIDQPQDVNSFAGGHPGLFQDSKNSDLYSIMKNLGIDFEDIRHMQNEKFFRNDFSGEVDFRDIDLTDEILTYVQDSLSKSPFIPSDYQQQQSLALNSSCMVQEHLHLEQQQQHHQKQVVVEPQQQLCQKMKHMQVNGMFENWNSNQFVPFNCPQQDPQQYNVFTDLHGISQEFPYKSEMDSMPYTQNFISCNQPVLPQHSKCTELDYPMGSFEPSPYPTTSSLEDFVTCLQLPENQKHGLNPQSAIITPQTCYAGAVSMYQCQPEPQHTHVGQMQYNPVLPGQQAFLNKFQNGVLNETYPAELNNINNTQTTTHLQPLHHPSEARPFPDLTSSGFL
As to the kind of experiment: Antagonistic effect for AHR in HepG2 cells stably transfected with CYP1A1-promoter firefly luciferase reporter. Format: cell-based. The conditions noted are these: AHR agonist-stimulated, 24 h compound treatment, average of two replicates. The source says:
A human liver cancer cell line HepG2 endogenously expressing an AHR protein (provided by the Stem Cell Bank of the Chinese Academy of Sciences) was adopted for testing. The expression of a CYP1A1 gene is regulated by an activity of AHR. After being activated, AHR can bind to a sequence called XRE on a CYP1A1 enhancer and initiate the expression of the CYP1A1 gene. To quantitatively determine an impact of a compound on the activity of AHR, a 1,200 bp (−1,143 to +57) regulatory sequence upstream of a promoter of the CYP1A1 gene was synthesized through gene synthesis and then inserted into a plasmid vector carrying firefly luciferase. The plasmid was then linearized through single enzyme cleavage and then transfected into HepG2 cells through lipofectin transfection (Lipofectamine 3000), and transfected HepG2 cells were screened by puromycin to obtain a stably-expressed cell line. When an antagonistic effect of a compound for AHR was tested, the expression of firefly luciferase was initiated by an AHR agonist (such as L-kynurenine, kynurenic acid, indirubin, TCDD, and 2-(1H-indol-3-ylcarbonyl)-4-thiazolecarboxylic acid methyl ester (ITE)), and cells were treated with the compound at different concentrations. Then, the inhibition on the expression of luciferase by the compound was measured.
Stably-transfected HepG2 cells were sub-cultivated in Minimum Eagle's medium (MEM) at 37° C. and 5% carbon dioxide. In the MEM, 1 mM sodium pyruvate, 2 mM GlutaMax, 1×non- essential amino acids, 10% Australian fetal bovine serum, 100 U/mL penicillin-streptomycin, and 5 μg/mL puromycin were supplemented. Before testing, HepG2 cells were inoculated into a 96-well plate at a density of 5-8×10^4 cells/well and cultivated for 24 h to 48 h to allow a cell confluency of about 90% before a drug treatment (puromycin was not added in a medium). Before the drug treatment, AHR agonist-containing 2×compound solutions at different concentrations were prepared with a same medium, and then a half of a cell culture medium in the 96-well plate was replaced with a 2×compound solution. An AHR agonist solution including only DMSO at a corresponding concentration was set as a negative control group, and CH223191 at a corresponding concentration (commercially available) was set as a positive control group. 2 separate replicate tests were set for each compound (including a positive control and a negative control). 24 h after the compound treatment, HepG2 cells were lysed by a Steady-Glo luciferase detection system of Promega, and a luciferase signal was measured by an InfiniteM1000 Pro microplate reader of Tecan.
In terms of data processing, for each replicate test of each compound, inhibition percentages of a compound at different concentrations on an activity of AHR were calculated sequentially with a signal of a well at a compound concentration of 0 as 100% and a cell signal of an untreated agonist as 0. Corresponding IC50 of a compound was calculated with an average value of data of two replicates according to the formula
tirougn non-nnear ning, where y represents an inhibition percentage and x represents a concentration of a corresponding compound.
IC50 for each compound was shown in Table 2, where A indicates IC50≤500 nM, B indicates 500 nM<IC50≤1.0 μM, C indicates 1 μM<IC50≤5.0 μM, and D indicates IC50>5.0 μM.
Background: A reporter such as luciferase makes a cellular process visible.

Regarding `CC(C)NNC(=O)c1cc(-c2ccc(C(F)(F)F)cc2)nc(-c2cccnc2)n1` [Compound 10], the IC50 (as a rule, the concentration that gives 50% inhibition) was at most 500 nM.
In turn, `CCN(NC(=O)c1cc(-c2ccc(C(F)(F)F)cc2)nc(-c2cnsc2)n1)C(C)CO` (stereo not shown) [Compound 57] showed a 50% inhibitory concentration (IC50) of at most 500 nM.
In the case of `C[C@@H]1COCCN1NC(=O)c1cc(-c2ccc(C(F)(F)F)cc2)nc(-c2cccnc2)n1` [Compound 5], the IC50 is at most 500 nM.
Turning to `Cn1cc(-c2nc(C(=O)NN3CCOC[C@@H]3CO)cc(-c3ccc(C(F)(F)F)cc3)n2)cn1` [Compound 44], the IC50 is at most 500 nM.
`CCN(NC(=O)c1cc(-c2ccc(Cl)cc2)nc(-c2cccc(C)c2)n1)C(C)CO` (stereo not shown) [Compound 55] displayed an IC50 of 500 to 1000 nM.
Next, `C[C@@H]1COCCN1NC(=O)c1cc(-c2ccc(Cl)cc2)nc(-c2cnn(C)c2)n1` [Compound 40]: at most 500 nM; `C[C@H]1COCCN1NC(=O)c1cc(-c2ccc(C(F)(F)F)cc2)nc(-c2cnn(C)c2)n1` [Compound 39]: at most 500 nM.
As for `CC(C)N(NC(=O)c1cc(-c2ccc(C(F)(F)F)nc2)nc(-c2cccnc2)n1)C(C)CO` (stereo not shown) [Compound 60], the IC50 lay in the range of 500 to 1000 nM.
Compound `Cc1ccc(-c2cc(C(=O)NN(C(C)C)C(C)CO)nc(-c3cccnc3)n2)cn1` (stereo not shown) [Compound 50] had an IC50 of 500 to 1000 nM.
As for `CC(=O)N(NC(=O)c1cc(-c2ccc(C(F)(F)F)cc2)nc(-c2cccnc2)n1)C(C)C` [Compound 66], the figure is at most 500 nM; as for `CCN(NC(=O)c1cc(-c2ccc(C(F)(F)F)cc2)nc(-c2cccc(F)c2)n1)C(C)CO` (stereo not shown) [Compound 52], at most 500 nM; as for `Cn1cc(-c2nc(C(=O)NN3CCOC[C@H]3CO)cc(-c3ccc(C(F)(F)F)cc3)n2)cn1` [Compound 45], at most 500 nM.
`CCN(NC(=O)c1cc(-c2ccc(C(F)(F)F)cc2)nc(-c2cccs2)n1)C(C)CO` (stereo not shown) [Compound 56] returned an IC50 of at most 500 nM.
As for `CN(CCO)NC(=O)c1cc(-c2ccc(C(F)(F)F)cc2)nc(-c2cnn(C)c2)n1` [Compound 18], the figure is at most 500 nM; as for `CN(CCO)NC(=O)c1cc(-c2ccc(Cl)cc2)nc(-c2cccnc2)n1` [Compound 17], at most 500 nM.
Next, `CC(C)N(NC(=O)c1cc(-c2ccc(N)cc2)nc(-c2cccnc2)n1)C(C)CO` (stereo not shown) [Compound 63]: 500 to 1000 nM; `CC(C)N(NC(=O)c1cc(-c2ccc(C(F)(F)F)nc2)nc(-c2cccc(F)c2)n1)C(C)CO` (stereo not shown) [Compound 65]: 500 to 1000 nM.
`CC(C)N(NC(=O)c1cc(-c2ccc(C(F)(F)F)cc2)nc(-c2cccnc2)n1)C(=O)c1cccnc1` [Compound 68]: the IC50 was at most 500 nM.
As for `C[C@H]1COCCN1NC(=O)c1cc(-c2ccc(OC(F)(F)F)cc2)nc(-c2cnn(C)c2)n1` [Compound 15], the figure is at most 500 nM; as for `O=C(NN1CCS(=O)(=O)CC1)c1cc(-c2ccc(C(F)(F)F)cc2)nc(-c2cccnc2)n1` [Compound 25], 500 to 1000 nM; as for `COc1ccc(-c2cc(C(=O)NN(C(C)C)C(C)CO)nc(-c3cccnc3)n2)cc1` (stereo not shown) [Compound 48], 500 to 1000 nM.
Compound `CC(CO)NNC(=O)c1cc(-c2ccc(C(F)(F)F)cc2)nc(-c2cccnc2)n1` (stereo not shown) [Compound 13] displayed an IC50 of at most 500 nM.
